Assays:
Assay in all cases: biochemical
Design in all cases: KINOMEscan active-site-directed competition binding panel, 468 kinases, percent of DMSO control at 1 uM
Conditions in all cases: KINOMEscan binding, percent of DMSO control; read-out: Ctrl%
CSNK1G3 = CSNK1G3 (Homo sapiens, UniProt Q9Y6M4)
PCTK1 = biological target: T1, PCTK1 (Homo sapiens, UniProt Q00536)
T1 construct: gene CDK16

CSNK1A1L = CSNK1A1L (Homo sapiens, UniProt Q8N752)
BMPR1B = BMPR1B (Homo sapiens, UniProt O00238)
[1] = biological target: T2, RSK3(Kin.Dom.2-C-terminal) (Homo sapiens, UniProt Q15349)
T2 construct: gene RPS6KA2; Kin.Dom.2-C-terminal

CDKL1 = CDKL1 (Homo sapiens, UniProt Q00532)
CDKL1, sequence (Q00532 whole entry): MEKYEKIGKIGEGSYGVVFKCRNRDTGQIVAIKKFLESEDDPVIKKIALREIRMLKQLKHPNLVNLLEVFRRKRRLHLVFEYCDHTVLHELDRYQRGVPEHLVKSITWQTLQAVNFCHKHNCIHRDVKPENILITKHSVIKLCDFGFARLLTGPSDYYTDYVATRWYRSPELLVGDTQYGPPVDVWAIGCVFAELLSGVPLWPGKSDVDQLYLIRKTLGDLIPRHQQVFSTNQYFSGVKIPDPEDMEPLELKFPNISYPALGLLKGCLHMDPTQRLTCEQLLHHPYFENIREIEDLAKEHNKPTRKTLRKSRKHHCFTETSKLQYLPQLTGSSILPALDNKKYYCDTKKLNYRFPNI

CDKL5 = CDKL5 (Homo sapiens, UniProt O76039)
CDK4-cyclinD1 = biological target: T3, CDK4-cyclinD1 (Homo sapiens, UniProt P11802)
T3 construct: cyclinD1

FGFR4 = FGFR4 (Homo sapiens, UniProt P22455)
BRSK2 = BRSK2 (Homo sapiens, UniProt Q8IWQ3)
BRSK2, sequence (Q8IWQ3 whole entry): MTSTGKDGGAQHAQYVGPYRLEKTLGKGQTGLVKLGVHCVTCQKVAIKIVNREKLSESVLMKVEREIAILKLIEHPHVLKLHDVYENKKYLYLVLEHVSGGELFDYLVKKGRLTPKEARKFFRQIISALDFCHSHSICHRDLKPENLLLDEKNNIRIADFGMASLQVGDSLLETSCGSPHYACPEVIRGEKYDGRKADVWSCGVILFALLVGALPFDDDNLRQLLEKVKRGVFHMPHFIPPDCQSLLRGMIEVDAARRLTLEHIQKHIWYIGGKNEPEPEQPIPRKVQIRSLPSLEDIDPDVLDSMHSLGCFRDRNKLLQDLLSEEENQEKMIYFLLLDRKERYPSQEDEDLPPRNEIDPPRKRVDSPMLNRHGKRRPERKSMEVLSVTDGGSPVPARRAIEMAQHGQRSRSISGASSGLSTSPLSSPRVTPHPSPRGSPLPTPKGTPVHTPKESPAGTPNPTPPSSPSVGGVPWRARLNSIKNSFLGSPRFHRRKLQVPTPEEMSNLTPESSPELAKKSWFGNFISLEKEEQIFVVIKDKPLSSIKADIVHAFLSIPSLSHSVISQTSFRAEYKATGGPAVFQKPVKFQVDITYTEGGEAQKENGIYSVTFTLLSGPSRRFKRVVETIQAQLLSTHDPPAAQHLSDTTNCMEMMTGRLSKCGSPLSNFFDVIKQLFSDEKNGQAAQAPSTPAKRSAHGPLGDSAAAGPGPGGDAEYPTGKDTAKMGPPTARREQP

NEK9 = NEK9 (Homo sapiens, UniProt Q8TD19)
[2] = biological target: T4, JAK1(JH2domain-pseudokinase) (Homo sapiens, UniProt P23458)
T4 construct: JH2domain-pseudokinase

FLT3(K663Q) = FLT3(K663Q) (Homo sapiens, UniProt P36888, K663Q)
DYRK1A = DYRK1A (Homo sapiens, UniProt Q13627)
MST4 = biological target: T5, MST4 (Homo sapiens, UniProt Q9P289)
T5 construct: gene STK26

YANK1 = biological target: T6, YANK1 (Homo sapiens, UniProt Q8WU08)
T6 construct: gene STK32A
T6 sequence (Q8WU08 whole entry): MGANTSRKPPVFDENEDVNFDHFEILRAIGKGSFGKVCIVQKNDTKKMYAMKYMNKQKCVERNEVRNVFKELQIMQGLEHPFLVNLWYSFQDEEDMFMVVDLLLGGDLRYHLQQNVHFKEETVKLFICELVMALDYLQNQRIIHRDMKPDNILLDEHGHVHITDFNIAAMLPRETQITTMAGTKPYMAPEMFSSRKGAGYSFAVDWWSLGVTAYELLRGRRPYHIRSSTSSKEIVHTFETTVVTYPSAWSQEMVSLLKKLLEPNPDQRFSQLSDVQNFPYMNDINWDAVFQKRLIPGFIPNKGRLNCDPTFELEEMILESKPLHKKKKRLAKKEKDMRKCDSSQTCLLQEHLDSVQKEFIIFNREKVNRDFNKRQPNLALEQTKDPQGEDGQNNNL

MEK4 = biological target: T7, MEK4 (Homo sapiens, UniProt P45985)
T7 construct: gene MAP2K4

ADCK4 = biological target: T8, ADCK4 (Homo sapiens, UniProt Q96D53)
T8 construct: gene COQ8B

ULK1 = ULK1 (Homo sapiens, UniProt O75385)
ULK1, sequence (O75385 whole entry): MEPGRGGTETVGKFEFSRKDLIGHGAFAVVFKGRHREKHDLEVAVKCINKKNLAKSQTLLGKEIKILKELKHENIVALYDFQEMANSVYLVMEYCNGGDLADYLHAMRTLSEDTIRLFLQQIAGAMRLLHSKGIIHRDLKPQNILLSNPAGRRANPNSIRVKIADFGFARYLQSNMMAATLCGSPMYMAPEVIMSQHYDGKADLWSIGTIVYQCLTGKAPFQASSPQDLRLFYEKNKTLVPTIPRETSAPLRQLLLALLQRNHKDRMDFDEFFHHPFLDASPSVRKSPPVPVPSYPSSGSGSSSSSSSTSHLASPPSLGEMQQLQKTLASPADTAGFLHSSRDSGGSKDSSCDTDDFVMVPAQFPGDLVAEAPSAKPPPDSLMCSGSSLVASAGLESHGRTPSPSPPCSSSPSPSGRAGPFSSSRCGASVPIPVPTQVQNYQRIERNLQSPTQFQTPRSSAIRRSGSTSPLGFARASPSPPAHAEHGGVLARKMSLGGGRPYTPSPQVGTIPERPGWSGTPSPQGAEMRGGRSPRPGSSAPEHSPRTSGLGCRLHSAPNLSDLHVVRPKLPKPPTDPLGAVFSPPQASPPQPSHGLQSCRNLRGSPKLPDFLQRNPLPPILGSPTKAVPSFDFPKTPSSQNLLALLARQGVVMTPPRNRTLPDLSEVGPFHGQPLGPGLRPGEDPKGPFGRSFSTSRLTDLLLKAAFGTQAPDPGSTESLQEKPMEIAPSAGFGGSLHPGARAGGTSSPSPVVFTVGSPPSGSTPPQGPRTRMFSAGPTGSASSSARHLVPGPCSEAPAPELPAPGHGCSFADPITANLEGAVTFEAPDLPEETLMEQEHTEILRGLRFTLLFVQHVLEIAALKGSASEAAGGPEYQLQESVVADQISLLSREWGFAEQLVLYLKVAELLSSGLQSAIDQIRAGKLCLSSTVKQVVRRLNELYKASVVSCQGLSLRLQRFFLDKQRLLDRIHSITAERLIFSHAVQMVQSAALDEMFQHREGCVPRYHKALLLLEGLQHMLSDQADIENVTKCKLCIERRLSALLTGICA

KIT(V559D) = KIT(V559D) (Homo sapiens, UniProt P10721, V559D)
KIT(V559D), sequence (P10721 whole entry V559D): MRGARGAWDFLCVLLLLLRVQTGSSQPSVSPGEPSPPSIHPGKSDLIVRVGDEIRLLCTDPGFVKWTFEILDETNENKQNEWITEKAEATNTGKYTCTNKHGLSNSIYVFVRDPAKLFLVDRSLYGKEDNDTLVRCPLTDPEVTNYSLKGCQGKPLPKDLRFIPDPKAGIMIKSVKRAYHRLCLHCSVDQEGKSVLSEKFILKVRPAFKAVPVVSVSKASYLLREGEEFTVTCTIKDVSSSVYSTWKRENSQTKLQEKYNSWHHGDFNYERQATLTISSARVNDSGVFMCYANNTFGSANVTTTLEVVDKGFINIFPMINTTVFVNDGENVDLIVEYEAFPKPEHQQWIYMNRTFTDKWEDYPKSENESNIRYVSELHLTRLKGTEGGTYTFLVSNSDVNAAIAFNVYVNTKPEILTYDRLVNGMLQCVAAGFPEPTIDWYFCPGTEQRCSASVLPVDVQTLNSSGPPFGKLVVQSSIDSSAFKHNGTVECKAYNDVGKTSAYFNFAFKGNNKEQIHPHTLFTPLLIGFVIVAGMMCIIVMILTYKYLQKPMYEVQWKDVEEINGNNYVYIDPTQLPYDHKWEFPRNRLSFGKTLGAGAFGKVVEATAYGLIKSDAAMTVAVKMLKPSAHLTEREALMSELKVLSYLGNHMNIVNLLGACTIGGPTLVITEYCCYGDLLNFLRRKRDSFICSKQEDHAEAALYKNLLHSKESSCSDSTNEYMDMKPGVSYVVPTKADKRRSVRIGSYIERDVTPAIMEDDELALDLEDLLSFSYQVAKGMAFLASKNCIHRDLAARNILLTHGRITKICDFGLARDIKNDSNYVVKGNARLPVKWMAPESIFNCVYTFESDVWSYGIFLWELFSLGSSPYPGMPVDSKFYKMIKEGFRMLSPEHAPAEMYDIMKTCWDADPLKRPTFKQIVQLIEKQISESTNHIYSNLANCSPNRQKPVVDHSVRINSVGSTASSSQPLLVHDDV

RIOK3 = RIOK3 (Homo sapiens, UniProt O14730)
RIOK3, sequence (O14730 whole entry): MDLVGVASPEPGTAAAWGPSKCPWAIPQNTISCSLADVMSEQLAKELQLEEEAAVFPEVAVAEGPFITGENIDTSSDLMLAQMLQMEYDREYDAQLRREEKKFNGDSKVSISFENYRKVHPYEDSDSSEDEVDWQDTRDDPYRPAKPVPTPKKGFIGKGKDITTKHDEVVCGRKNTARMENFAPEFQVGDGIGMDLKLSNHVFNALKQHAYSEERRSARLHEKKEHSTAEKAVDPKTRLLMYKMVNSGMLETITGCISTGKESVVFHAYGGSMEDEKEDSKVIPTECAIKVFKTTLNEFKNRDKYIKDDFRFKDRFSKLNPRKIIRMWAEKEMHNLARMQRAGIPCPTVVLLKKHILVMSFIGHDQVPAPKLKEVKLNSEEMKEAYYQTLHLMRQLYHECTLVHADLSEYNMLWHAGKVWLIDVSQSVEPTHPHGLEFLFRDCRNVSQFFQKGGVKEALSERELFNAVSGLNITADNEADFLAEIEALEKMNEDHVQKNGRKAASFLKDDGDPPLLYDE

DLK = biological target: T9, DLK (Homo sapiens, UniProt Q12852)
T9 construct: gene MAP3K12
T9 sequence (Q12852 whole entry): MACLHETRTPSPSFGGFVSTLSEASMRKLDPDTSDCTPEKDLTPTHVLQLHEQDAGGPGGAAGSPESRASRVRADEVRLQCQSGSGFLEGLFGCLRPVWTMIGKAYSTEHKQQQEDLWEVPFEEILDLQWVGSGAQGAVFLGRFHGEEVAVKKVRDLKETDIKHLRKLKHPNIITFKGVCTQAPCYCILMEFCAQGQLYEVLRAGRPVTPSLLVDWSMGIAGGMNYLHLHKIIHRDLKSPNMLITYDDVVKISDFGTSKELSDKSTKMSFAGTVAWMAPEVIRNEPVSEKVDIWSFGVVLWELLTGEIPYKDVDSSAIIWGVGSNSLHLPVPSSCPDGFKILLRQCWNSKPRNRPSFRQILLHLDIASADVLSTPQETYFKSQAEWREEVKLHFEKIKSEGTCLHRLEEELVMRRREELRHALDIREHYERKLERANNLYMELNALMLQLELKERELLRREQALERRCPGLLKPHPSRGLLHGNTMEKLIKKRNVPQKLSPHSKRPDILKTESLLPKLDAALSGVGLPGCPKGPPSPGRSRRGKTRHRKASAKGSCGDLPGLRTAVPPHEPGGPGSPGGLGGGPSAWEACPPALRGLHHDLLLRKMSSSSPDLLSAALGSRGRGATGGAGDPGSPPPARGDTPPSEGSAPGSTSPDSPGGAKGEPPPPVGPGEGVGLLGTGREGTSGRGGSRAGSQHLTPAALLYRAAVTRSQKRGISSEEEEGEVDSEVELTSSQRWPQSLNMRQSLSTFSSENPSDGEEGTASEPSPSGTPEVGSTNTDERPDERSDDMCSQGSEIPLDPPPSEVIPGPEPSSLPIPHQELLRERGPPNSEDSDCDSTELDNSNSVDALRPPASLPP

BRAF(V600E) = BRAF(V600E) (Homo sapiens, UniProt P15056, V600E)

`Cc1ccc(NC(=O)c2cccc(C(F)(F)F)c2)cc1Nc1cc(-c2cccnc2)nc2[nH]ccc12` [HZX-02-059] was tested, and the remaining binding at 1 µM (CSNK1G3) was 100%, the remaining binding at 1 µM (PCTK1) was 100% and the remaining binding at 1 µM (CSNK1A1L) was 92%. The remaining binding at 1 µM (BMPR1B) was 91%, the remaining binding at 1 µM [1] was 89% and the remaining binding at 1 µM (CDKL1) was 89%. The remaining binding at 1 µM (CDKL5) was 90%, the remaining binding at 1 µM (CDK4-cyclinD1) was 98% and the remaining binding at 1 µM (FGFR4) was 91%. For the same compound, the remaining binding at 1 µM (BRSK2) was 99%, the remaining binding at 1 µM (NEK9) was 71% and the remaining binding at 1 µM [2] was 64%. The remaining binding at 1 µM (FLT3(K663Q)) was 98%, the remaining binding at 1 µM (DYRK1A) was 85% and the remaining binding at 1 µM (MST4) was 80%. The remaining binding at 1 µM (YANK1) was 92%, the remaining binding at 1 µM (MEK4) was 78% and the remaining binding at 1 µM (ADCK4) was 91%. For the same compound, the remaining binding at 1 µM (ULK1) was 97%, the remaining binding at 1 µM (KIT(V559D)) was 0.9% and the remaining binding at 1 µM (RIOK3) was 100%. It also gave a remaining binding at 1 µM (DLK) of 100% and a remaining binding at 1 µM (BRAF(V600E)) of 4.5%.
